# In article PMC6467259 (Journal of the American Chemical Society, 2018):
# Molecular target: PagF (Planktothrix agardhii, UniProt F5B6Z0, F222A)
# Assay: crystal structure of the complex, […] Å
# Details: MgCl2; isoprene donor-binding site
smiles,measurement,value
CC(C)=CCC/C(C)=C/COP(=O)(O)OP(=O)(O)O [GPP],"crystal structure of the complex, 1.85 Å",crystals of Phe222→Ala PagF in complex with GPP and MgCl2
